From patent US20250163484A1, “Methods for Incorporating Azido Groups in Bacterial Capsular Polysaccharides” (PFIZER INC., priority 2022, published 2025)
“And” between values parts separate entries of the source, which are not always exact repeats. Equal entries are not always repeated.

Legend:
S. pneumoniae T14 [1] = experiment: Growth of S. pneumoniae T14 in fermentation with azido sugar (OD600); type: cell-based, Streptococcus pneumoniae serotype 14; details: production media + 2AzGlc (10 mM)
Description: FIGS. 1A-1D. Screen for azido sugar incorporation into S. pneumoniae T14 capsule polysaccharide. Vessels (100 mL working volume) were inoculated with a 10-fold dilution of bacteria grown in seed expansion media supplemented with Galactose (30 g/L) (OD600=1.0-1.2) and incubated at 36° C. and 173 rpm with an air overlay of 1.5 SLPH. Media (production medium supplemented with Glucose (30 g/L) (black bars) or production medium supplemented with Galactose (30 g/L) (grey bars)) pH was controlled at 7.0. Bacteria were grown until the ΔOD600≥0 for >30 minutes, then lysed with 0.1% NLS for 30 minutes. Growth was measured offline using a spectrophotometer blanked with PBS at 600 nm. (FIG. 1A) azido incorporation into polysaccharide was then quantified via fluorescent labeling (FL) with normalization to refractive index (RI). MaxOD and End Of Fermentation time (EOF) are provided in (FIG. 1B) and (FIG. 1C), respectively. Polysaccharide was extracted using EtOH and CaCl2 and analyzed via SEC-RI for (FIG. 1D) polysaccharide titer. n=1-4, error bars=+/−StDev.
To identify azido sugars that could incorporate into S. pneumoniae T14 capsule, we grew S. pneumoniae T14 (serotype 14) in the production medium supplemented with various azido sugars (Table 3) supplied at 1 mM. We performed our screen using both production medium supplemented with Glucose (dextrose, 30 g/L) and production medium supplemented with Galactose (30 g/L).
We tested the impact of 2AzGlc concentration on S. pneumoniae T14 growth, polysaccharide production, and azido incorporation by growing the bacteria in production media (supplemented with Glucose (dextrose, 30 g/L)) with various concentrations of 2AzGlc (0, 1, 5, 10, 20, 40, and 60 mM).
To improve the incorporation of 2AzGlc into S. pneumoniae T14 capsule in production media (supplemented with Glucose (dextrose, 30 g/L)), we performed a 16-vessel DOE designed to test the impact of pH (6.33, 6.66, 7.00, and 7.33) and agitation (100, 200, and 300 rpm) on four response variables (MaxOD, Poly Titer, Poly Size, and FL/RI).

S. pneumoniae T14 [2] = experiment: as above; type: cell-based, Streptococcus pneumoniae serotype 14; details: for MaxOD600 nm: production media + 2AzGlc (10 mM)

SMILES: [N-]=[N+]=N[C@@H](C=O)[C@@H](O)[C@H](O)[C@H](O)CO [2AzGlc, 2-Azido-2-deoxy-D-glucose]
- MaxOD600 nm (S. pneumoniae T14 [1]; pH 6.33, agitation 100 rpm): 12.1 and 13.6
- MaxOD600 nm (S. pneumoniae T14 [1]; pH 6.33, agitation 300 rpm): 10.8 and 10.7
- MaxOD600 nm (S. pneumoniae T14 [1]; pH 7, agitation 100 rpm): 8.8 and 7.8
- MaxOD600 nm (S. pneumoniae T14 [1]; pH 7.33, agitation 100 rpm): 8.9 and 9.6
- MaxOD600 nm (S. pneumoniae T14 [1]; pH 7.33, agitation 200 rpm): 8.5 and 8.3
- rate of galactose consumption, of the batch model (S. pneumoniae T14 [2]; 2AzGlc addition, production medium + Galactose (30 g/L)): ~70%
- concentration at which negative effect on growth started (S. pneumoniae T14 [2]; 2AzGlc titration, production media + Glucose (dextrose, 30 g/L)): 20 mM
- growth with increasing 2AzGlc concentrations (S. pneumoniae T14 [2]; 2AzGlc titration, production medium + Galactose (30 g/L)): negatively impacted
- MaxOD (S. pneumoniae T14 [2]; azido feed DOE: Gal 30 g/L, initial 2AzGlc 0 mM, 2AzGlc feed stock 4 mM, pH 7.33, 300 rpm): 9.78 and 9.56
- MaxOD (S. pneumoniae T14 [2]; azido feed DOE: Gal 30 g/L, initial 2AzGlc 0 mM, 2AzGlc feed stock 6.5 mM, pH 7.33, 300 rpm): 8.74 and 8.32
- MaxOD (S. pneumoniae T14 [2]; azido feed DOE: Gal 30 g/L, initial 2AzGlc 0.1 mM, 2AzGlc feed stock 4 mM, pH 7.33, 300 rpm): 8.96 and 8.13
- MaxOD (S. pneumoniae T14 [2]; azido feed DOE: Gal 30 g/L, initial 2AzGlc 0.1 mM, 2AzGlc feed stock 6.5 mM, pH 7.33, 300 rpm): 5.76 and 5.65
- MaxOD (S. pneumoniae T14 [2]; azido feed DOE: Gal 40 g/L, initial 2AzGlc 0 mM, 2AzGlc feed stock 4 mM, pH 7.33, 300 rpm): 9.78 and 7.39
- MaxOD (S. pneumoniae T14 [2]; azido feed DOE: Gal 40 g/L, initial 2AzGlc 0 mM, 2AzGlc feed stock 6.5 mM, pH 7.33, 300 rpm): 8.44 and 6.64
- MaxOD (S. pneumoniae T14 [2]; azido feed DOE: Gal 40 g/L, initial 2AzGlc 0.1 mM, 2AzGlc feed stock 4 mM, pH 7.33, 300 rpm): 8.53 and 8.4
- MaxOD (S. pneumoniae T14 [2]; azido feed DOE: Gal 40 g/L, initial 2AzGlc 0.1 mM, 2AzGlc feed stock 6.5 mM, pH 7.33, 300 rpm): 4.53 and 3.71
- growth (S. pneumoniae T14 [2]; azido sugar 20 mM without DMSO, production medium + Galactose (30 g/L)): strongly inhibited
- OD600 nm at which growth stopped (S. pneumoniae T14 [2]; fed-batch, initial galactose 5.0 g/L, 0.25 mM 2AzGlc, regardless of feed rate): 3.0
- maximum OD600 nm (average) (S. pneumoniae T14 [2]; initial galactose 40 g/L, initial 2AzGlc 0.1 mM, 4.0 mM 2AzGlc feed stock): 8.5
- MaxOD600 nm (S. pneumoniae T14 [2]; pH 6.66, agitation 200 rpm): 11.7
- MaxOD600 nm (S. pneumoniae T14 [2]; pH 7, agitation 300 rpm): 11.3 and 12.9
- MaxOD600 nm (S. pneumoniae T14 [2]; pH 7.33, agitation 300 rpm): 10.5 and 10.4
- MaxOD (S. pneumoniae T14 [2]; production medium + Galactose (30 g/L) + 2AzGlc (0.25 mM), pH 6.33, agitation 100 rpm): 6.98 and 6.76
- MaxOD (S. pneumoniae T14 [2]; production medium + Galactose (30 g/L) + 2AzGlc (0.25 mM), pH 6.33, agitation 200 rpm): 6.81
- MaxOD (S. pneumoniae T14 [2]; production medium + Galactose (30 g/L) + 2AzGlc (0.25 mM), pH 6.33, agitation 300 rpm): 6.05 and 5.89
- MaxOD (S. pneumoniae T14 [2]; production medium + Galactose (30 g/L) + 2AzGlc (0.25 mM), pH 6.66, agitation 100 rpm): 8.96
- MaxOD (S. pneumoniae T14 [2]; production medium + Galactose (30 g/L) + 2AzGlc (0.25 mM), pH 6.66, agitation 300 rpm): 9.1
- MaxOD (S. pneumoniae T14 [2]; production medium + Galactose (30 g/L) + 2AzGlc (0.25 mM), pH 7, agitation 200 rpm): 9.38
- MaxOD (S. pneumoniae T14 [2]; production medium + Galactose (30 g/L) + 2AzGlc (0.25 mM), pH 7.33, agitation 100 rpm): 8.43 and 8.23
- MaxOD (S. pneumoniae T14 [2]; production medium + Galactose (30 g/L) + 2AzGlc (0.25 mM), pH 7.33, agitation 300 rpm): 8.54 and 8.26
- maximum OD (S. pneumoniae T14 [2]; screen, azido sugar 1 mM, only in production medium + Galactose): reduced
